Results from US8080654B2, “Macrocyclic quinoxaline compounds as HCV NS3 protease inhibitors” (Insituto di Ricerche di Biologia Molecolare P. Angeletti SpA, priority 2008, dated 2011).
“Also recorded” adds a separate entry of the source. Like-named read-outs stand apart in the source and are kept apart here. Values belong to the compound of their own block, whether it stands above or below them.

Legend:
1b mutant enzyme D168A = 1b mutant enzyme D168A (Hepatitis C virus genotype 1b, UniProt P26663, D1194A); assay: NS3/4A TRF enzyme assay, 1b mutant D168A; format: biochemical, hepatitis C virus (HCV)
Protocol: (§1) A NS3 protease assay can be performed, for example, in a final volume of 100 μl assay buffer containing 50 mM HEPES, pH 7.5, 150 mM NaCl, 15% glycerol, 0.15% TRITON X-100, 10 mM DTT, and 0.1% PEG 8000. NS3 and NS4A protease is pre-incubated with various concentrations of inhibitors in DMSO for 30 minutes. The reaction is initiated by adding the TRF peptide substrate (final concentration 100 nM). NS3 mediated hydrolysis of the substrate is quenched after 1 hour at room temperature with 100 μl of 500 mM MES, pH 5.5. […] Testing concentrations of different enzyme forms are selected to result in a signal to background ratio (S/B) of 10-30. IC50 values are derived using a standard four-parameter fit to the data. Ki values are derived from IC50 values using the following formula, IC50=Ki(1+[S]/KM), Eqn (1), where [S] is the concentration of substrate peptide in the reaction and KM is the Michaelis constant. See P. Gallinari et al., 38 BIOCHEM. […] BIOCHEM. […] V. General Compound Production
(§2) NS 3/4A Inhibitory Activity^1 (Ki): NS 3/4A Inhibitory Activity was determined as described in Section IV.

1b mutant enzyme A156V = 1b mutant enzyme A156V (Hepatitis C virus genotype 1b, UniProt P26663, A1182V); assay: NS3/4A TRF enzyme assay, 1b mutant A156V; format: biochemical, hepatitis C virus (HCV)
Protocol: as §1, §2

HCV replicon gt1b = assay: HCV replicon activity, genotype 1b; format: cell-based; conditions: Hepatitis C virus; genotype 1b replicon; 50% viral replication suppression; read-out: Replicon Activity EC50 gtlb
1b mutant enzyme D168T = 1b mutant enzyme D168T (Hepatitis C virus genotype 1b, UniProt P26663, D1194T); assay: NS3/4A TRF enzyme assay, 1b mutant D168T; format: biochemical, hepatitis C virus (HCV)
Protocol: as §1, §2

1b mutant enzyme R155Q = 1b mutant enzyme R155Q (Hepatitis C virus genotype 1b, UniProt P26663, R1181Q); assay: NS3/4A TRF enzyme assay, 1b mutant R155Q; format: biochemical, hepatitis C virus (HCV)
Protocol: as §1, §2

1b mutant enzyme D168Y = 1b mutant enzyme D168Y (Hepatitis C virus genotype 1b, UniProt P26663, D1194Y); assay: NS3/4A TRF enzyme assay, 1b mutant D168Y; format: biochemical, hepatitis C virus (HCV)
Protocol: as §1, §2

1b mutant enzyme D168V = 1b mutant enzyme D168V (Hepatitis C virus genotype 1b, UniProt P26663, D1194V); assay: NS3/4A TRF enzyme assay, 1b mutant D168V; format: biochemical, hepatitis C virus (HCV)
Protocol: as §1, §2

1b mutant enzyme A156S = 1b mutant enzyme A156S (Hepatitis C virus genotype 1b, UniProt P26663, A1182S); assay: NS3/4A TRF enzyme assay, 1b mutant A156S; format: biochemical, hepatitis C virus (HCV)
Protocol: as §1, §2

1b mutant enzyme D168Q = 1b mutant enzyme D168Q (Hepatitis C virus genotype 1b, UniProt P26663, D1194Q); assay: NS3/4A TRF enzyme assay, 1b mutant D168Q; format: biochemical, hepatitis C virus (HCV)
Protocol: as §1, §2

1b mutant enzyme R155G = 1b mutant enzyme R155G (Hepatitis C virus genotype 1b, UniProt P26663, R1181G); assay: NS3/4A TRF enzyme assay, 1b mutant R155G; format: biochemical, hepatitis C virus (HCV)
Protocol: as §1, §2

1b mutant enzyme R155N = 1b mutant enzyme R155N (Hepatitis C virus genotype 1b, UniProt P26663, R1181N); assay: NS3/4A TRF enzyme assay, 1b mutant R155N; format: biochemical, hepatitis C virus (HCV)
Protocol: as §1, §2

1b mutant enzyme D168G = 1b mutant enzyme D168G (Hepatitis C virus genotype 1b, UniProt P26663, D1194G); assay: NS3/4A TRF enzyme assay, 1b mutant D168G; format: biochemical, hepatitis C virus (HCV)
Protocol: as §1, §2

1b mutant enzyme R155K = 1b mutant enzyme R155K (Hepatitis C virus genotype 1b, UniProt P26663, R1181K); assay: NS3/4A TRF enzyme assay, 1b mutant R155K; format: biochemical, hepatitis C virus (HCV)
Protocol: as §1, §2

1b mutant enzyme D168E = 1b mutant enzyme D168E (Hepatitis C virus genotype 1b, UniProt P26663, D1194E); assay: NS3/4A TRF enzyme assay, 1b mutant D168E; format: biochemical, hepatitis C virus (HCV)
Protocol: as §1, §2

1b mutant enzyme A156T = 1b mutant enzyme A156T (Hepatitis C virus genotype 1b, UniProt P26663, A1182T); assay: NS3/4A TRF enzyme assay, 1b mutant A156T; format: biochemical, hepatitis C virus (HCV)
Protocol: as §1, §2

NS 3/4A 1b = NS 3/4A 1b (Hepatitis C virus genotype 1b, UniProt P26663); assay: biochemical; conditions: genotype 1b enzyme; read-out: NS 3/4A Inhibitory Activity (Ki) lb
Protocol: A NS3 protease assay can be performed, for example, in a final volume of 100 μl assay buffer containing 50 mM HEPES, pH 7.5, 150 mM NaCl, 15% glycerol, 0.15% TRITON X-100, 10 mM DTT, and 0.1% PEG 8000. NS3 and NS4A protease is pre-incubated with various concentrations of inhibitors in DMSO for 30 minutes. The reaction is initiated by adding the TRF peptide substrate (final concentration 100 nM). NS3 mediated hydrolysis of the substrate is quenched after 1 hour at room temperature with 100 μl of 500 mM MES, pH 5.5. […] IC50 values are derived using a standard four-parameter fit to the data. […] See P. Gallinari et al., 38 BIOCHEM. […] BIOCHEM. […] V. General Compound Production
as §2

[1] = In vivo covalent protein binding of 3H-labelled compound; conditions: Rat @ 6 h, 20 mg/kg oral
Protocol: In-Vivo Covalent Binding^4: […] Plasma and liver were collected and flash frozen/stored at −80° C. before analysis. Counting of the plasma samples: Place a 200 μL aliquot in a 20 mL scintillation vial. Add 500 μL of SOLVABLE™ and incubate at 1 h with shaking at 55° C. Remove, allow to cool prior to the addition of 15 mL scintillation cocktail, and count. […] Tissue homogenization: […] Counting of the liver homogenate: Aliquots were placed in a 20 mL scintillation vial, diluted with 1 mL of SOLVABLE™ and incubated for 1 h with shaking at 55° C. After removal from the incubator and cooling 15 mL scintillation cocktail and 30% H2O2 were added and the radioactivity counted. Protein precipitation: […] Protein precipitate resuspension: Sonication (minimal intensity, <5 sec) and vortexing until the pellet crumbles in 80% MeOH:20% water. Wash of the protein pellet: 2-5 mL 80:20 MeOH:water. If needed, remove 1.0 mL of the supernatant, add 15 mL of scintillation cocktail and count. Continue to wash the protein pellet until radioactivity in supernatant is <200 DPM or DPMs cease to decrease by more than 200 in consecutive washes. Dissolution of the final pellet: 1 mL of 1 N NaOH or Solvable™, incubated at 50° C. overnight or until completely dissolved. Counting of the final pellet: 1 mL of dissolved pellet, 15 mL scintillation cocktail (if another scintillation cocktail other than ULTIMA GOLD™ is used, pellet may require neutralization using 1 N HCl), and count. Protein concentration of the final pellet: BCA or BIO-RAD kit using BSA as a standard. Counting blank samples: 15 mL scintillation cocktail, in duplicate. Counting of the dosing solution: count a known volume of the dosing solution in triplicate. Data Analysis: Average the radioactivity counts (DPM) of the dosing solution and calculate the specific activity of the dosing solution in μCi/mol. Average the radioactivity counts of the blank samples. Subtract the counts of the averaged blank sample from the counts obtained from each liver and plasma pellet. Calculate the amount of radioactivity (μCi) per unit volume (L) for each liver and plasma pellet. Calculate the concentration of radioactivity in each plasma and liver pellet by dividing the value obtained above (μCi/L) by the specific activity (μCi/mol). Calculate the amount of covalently bound radioactivity to protein in pmol/mg protein.

[2] = Rat pharmacokinetics per os (plasma AUC, liver concentration)
Protocol: (§3) Plasma samples were collected at time points between 2 minutes and 24 h, and compound levels were determined by RP-HPLC. Liver samples were collected post mortem in rat and following anesthesia (0.5 h prior to biopsy) in dog. Liver samples were weighed, homogenized, and diluted using techniques known to those skilled in the art, and compound levels were determined by RP-HPLC.
(§4) Pharmacokinetic parameters were calculated based on non-compartmental analysis (e.g., using WATSON®, WINNOLIN®). Predose concentrations that were below the limit of quantitation (BLQ) were assigned a value of 0. […] AUC values were calculated using linear trapezoidal method for ascending concentrations and the log trapezoidal method for descending concentrations.

[3] = Dog pharmacokinetics per os (plasma AUC, liver concentration)
Protocol: as §3, §4

[4] = Physical properties: equilibrium solubility and salt disproportionation (XRPD, NMR); format: physicochemical
Protocol: After centrifuging, the supernatant was analyzed by reversed-phase HPLC and the equilibrium solubility determined by comparison with a calibration curve. The solid material was in part transferred onto an XRPD plate, dried and then analyzed by X-Ray Powder Diffraction. The XRPD pattern was compared with positive controls for crystalline K+ salt, crystalline zwitterionic (or acidic) and amorphous forms of the test compound.

SMILES: C=C[C@@H]1C[C@]1(NC(=O)[C@@H]1C[C@@H]2CN1C(=O)[C@H](C(C)(C)C)NC(=O)O[C@@H]1CCC[C@H]1CCCCCc1nc3ccc(OC)cc3nc1O2)C(=O)NS(=O)(=O)C1CC1 [WO 2008/057209 Example 118]
Ki (1b mutant enzyme D168A): 860 pM
Ki (1b mutant enzyme A156V): 15000 pM
EC50 (HCV replicon gt1b): 3000 pM
Ki (1b mutant enzyme D168T): 780 pM
Ki (1b mutant enzyme R155Q): 1900 pM
Ki (1b mutant enzyme D168Y): 1500 pM
Ki (1b mutant enzyme D168V): 650 pM
Ki (1b mutant enzyme A156S): 100 pM
Ki (1b mutant enzyme D168Q): 420 pM
Ki (1b mutant enzyme R155G): 2300 pM
Ki (1b mutant enzyme R155N): 560 pM
Ki (1b mutant enzyme D168G): 450 pM
Ki (1b mutant enzyme R155K): 80 pM
Ki (1b mutant enzyme D168E): 120 pM
Ki (1b mutant enzyme A156T): 3400 pM
Ki (NS 3/4A 1b): < 16 pM

Covalent Protein Binding In Vivo, liver [1]: liver = 24 pmol eq./mg
Covalent Protein Binding In Vivo, plasma [1]: plasma = 6 pmol eq./mg
SMILES: C=C[C@@H]1C[C@]1(NC(=O)[C@@H]1C[C@@H]2CN1C(=O)[C@H](C(C)(C)C)NC(=O)O[C@@H]1CCC[C@H]1CCCCCc1nc3ccc(OC)cc3cc1O2)C(=O)NS(=O)(=O)C1CC1 [WO 2008/057209 Example 103]

SMILES: C=C[C@@H]1C[C@]1(NC(=O)[C@@H]1C[C@@H]2CN1C(=O)[C@H](C(C)(C)C)NC(=O)O[C@@H]1C[C@H]1CCCCCc1nc3ccc(OC)cc3cc1O2)C(=O)NS(=O)(=O)C1CC1 [WO 2008/057209 Example 110]
Rat Liver Concentration @ 24 h (25 mpk per os) ([2]; 25 mpk per os): 8.5 µM
AUC ([2]; plasma, po, 25 mg/kg): 5.8 µM·h
EC50 (HCV replicon gt1b): 5000 pM
Covalent Protein Binding In Vivo, liver ([1]; LOQ = 3 pmol/mg): liver = BLQ
Covalent Protein Binding In Vivo, plasma ([1]; LOQ = 3 pmol/mg): plasma = BLQ,
Dog Liver Concentration @ 24 h (5mpk per os) ([3]; 5 mpk per os): 3.3 µM
AUC ([3]; plasma, po, 5 mg/kg): 1 µM·h
solubility at 24 h ([4]; water, thermodynamic from solid, K+ salt form, read-out: Aqueous solubility of K+ salt form): 9700 µg/mL
solubility at 24 h ([4]; water, thermodynamic from solid, crystalline zwitterionic form from disproportionation of the K+ salt, read-out: Aqueous solubility of crystalline zwitterionic form): < 9 µg/mL
Ki (NS 3/4A 1b): < 16 pM

Covalent Protein Binding In Vivo, liver [1]: liver = 38 pmol eq./mg
Covalent Protein Binding In Vivo, plasma [1]: plasma = 15 pmol eq./mg
SMILES: C=C[C@@H]1C[C@]1(NC(=O)[C@@H]1C[C@@H]2CN1C(=O)[C@H](C1CCCC1)NC(=O)O[C@@H]1CCC[C@H]1CCCCCc1nc3ccccc3nc1O2)C(=O)NS(=O)(=O)C1CC1 [WO 2008/057209 Example 108]

SMILES: C=C[C@@H]1C[C@]1(NC(=O)[C@@H]1C[C@@H]2CN1C(=O)[C@H](C(C)(C)C)NC(=O)O[C@@H]1C[C@H]1CCCCCc1nc3ccc(OC)cc3nc1O2)C(=O)[N-]S(=O)(=O)C1CC1.[K+] [Example 1, Potassium {[(1R,2S)-1-({[(1aR,5S,8S,10R,22aR)-5-tert-butyl-14-methoxy-3,6-dioxo-1,1a,3,4,5,6,9,10,18,19,20,21,22,22a-tetradecahydro-8H-7,10-methanocyclopropa[18,19][1,10,3,6]dioxadiazacyclononadecino[11,12-b]quinoxalin-8-yl]carbonyl}amino)-2-vinylcyclopropyl]carbonyl}(cyclopropylsulfonyl)azanide]
Rat Liver Concentration @ 24 h (25 mpk per os) ([2]; 25 mpk per os): 27.9 µM
Rat Plasma AUC @ 25mpk per os ([2]; 25 mpk per os, plasma): 20.6 µM·h
Covalent Protein Binding In Vivo, liver ([1]; LOQ = 3 pmol/mg): liver = LOQ
Covalent Protein Binding In Vivo, plasma ([1]; LOQ = 3 pmol/mg, 20 mg/kg): undetectable binding; also recorded: plasma = LOQ,
Dog Liver Concentration @ 24 h (5mpk per os) ([3]; 5 mpk per os): 120 µM
Dog Plasma AUC @ 5mpk per os ([3]; 5 mpk per os, plasma): 48.6 µM·h
solubility at 24 h ([4]; thermodynamic from solid; K+ salt form, water; read-out: Aqueous solubility of K+ salt form): 1800 µg/mL

Covalent Protein Binding In Vivo, liver [1]: liver = 63 pmol eq./mg
Covalent Protein Binding In Vivo, plasma [1]: plasma = 6 pmol eq./mg
SMILES: C=C[C@@H]1C[C@]1(NC(=O)[C@@H]1C[C@@H]2CN1C(=O)[C@H](C1CCCC1)NC(=O)O[C@@H]1CCC[C@H]1CCCCCc1nc3ccccc3cc1O2)C(=O)NS(=O)(=O)C1CC1 [WO 2008/057209 Example 96]
